From PubChem BioAssay AID248 (DTP/NCI, 2004)
Inconclusive results and toxic doses are left out.

System: L1210 leukemia ip in BDF1 mice, survival T/C
Test: NCI In Vivo Anticancer Drug Screen. Data for tumor model L1210 Leukemia (intraperitoneal) in B6D2F1 (BDF1) mice
Conditions: endpoint: mean survival time, higher = longer survival
Summary of the method: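 Tumor cells were implanted, animals were treated, and survival was followed. The result divides the treated measurement by the vehicle-control measurement.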

[1] = dose: 12.5 mg/kg/injection, schedule: Q01DX009 (ip), vehicle: saline
[2] = dose: 100.0 mg/kg/injection, schedule: Q04DX003 (ip), vehicle: saline with Tween-80
[3] = dose: 100.0 mg/kg/injection, schedule: Q01DX009 (ip), vehicle: Klucel (hydroxypropylcellulose) (HPC)
[4] = dose: 100.0 mg/kg/injection, schedule: Q04DX003 (ip), vehicle: Klucel (hydroxypropylcellulose) (HPC)
[5] = dose: 200.0 mg/kg/injection, schedule: Q01DX009 (ip), vehicle: Klucel (hydroxypropylcellulose) (HPC)

COc1cccc2c1C(=O)c1c(O)c3c(c(O)c1C2=O)C[C@@](O)(/C(C)=N\NC(N)=O)C[C@@H]3OC1CC(N)C(O)C(C)O1 (stereo partly specified)
T/C (dose: 1.5 mg/kg/injection, schedule: Q01DX009 (ip), vehicle: saline): 107 % of control | T/C (dose: 2.0 mg/kg/injection, schedule: Q04DX003 (ip), vehicle: water): 110 % of control | T/C (dose: 3.0 mg/kg/injection, schedule: Q01DX009 (ip), vehicle: saline): 112 % of control | T/C (dose: 3.12 mg/kg/injection, schedule: Q01DX009 (ip), vehicle: saline): 113 % of control | T/C (dose: 4.0 mg/kg/injection, schedule: Q04DX003 (ip), vehicle: water): 120 % of control | T/C (dose: 6.0 mg/kg/injection, schedule: Q01DX009 (ip), vehicle: saline): 117 % of control | T/C (dose: 6.25 mg/kg/injection, schedule: Q01DX009 (ip), vehicle: saline): 150 % of control | T/C (dose: 8.0 mg/kg/injection, schedule: Q04DX003 (ip), vehicle: saline): 111 % of control | T/C [1]: 155 % of control | T/C (dose: 12.5 mg/kg/injection, schedule: Q04DX003 (ip), vehicle: saline): 124 % of control | T/C (dose: 24.0 mg/kg/injection, schedule: Q01DX009 (ip), vehicle: saline): 124 % of control | T/C (dose: 50.0 mg/kg/injection, schedule: Q04DX003 (ip), vehicle: saline): 157 % of control | T/C (dose: 125.0 micrograms/kg/injection, schedule: Q04DX003 (ip), vehicle: water): 105 % of control | T/C (dose: 250.0 micrograms/kg/injection, schedule: Q04DX003 (ip), vehicle: water): 107 % of control | T/C (dose: 500.0 micrograms/kg/injection, schedule: Q04DX003 (ip), vehicle: water): 108 % of control | T/C (dose: 1000.0 micrograms/kg/injection, schedule: Q04DX003 (ip), vehicle: water): 107 % of control | T/C (dose: 2000.0 micrograms/kg/injection, schedule: Q04DX003 (ip), vehicle: water): 110 % of control

CC(=O)C(Cl)C(O)(C(F)(F)F)C(F)(F)F (stereo unspecified)
T/C [1]: 96 % of control | T/C (dose: 25.0 mg/kg/injection, schedule: Q01DX009 (ip), vehicle: saline): 100 % of control | T/C (dose: 50.0 mg/kg/injection, schedule: Q01DX009 (ip), vehicle: saline): 110 % of control | T/C [2]: 95 % of control | T/C (dose: 200.0 mg/kg/injection, schedule: Q04DX003 (ip), vehicle: saline with Tween-80): 104 % of control

CC(C)(C)[Se]C(=N)N
T/C (dose: 18.8 mg/kg/injection, schedule: Q01DX001 (ip), vehicle: saline with Tween-80): 101 % of control | T/C (dose: 37.5 mg/kg/injection, schedule: Q01DX001 (ip), vehicle: saline with Tween-80): 100 % of control | T/C (dose: 50.0 mg/kg/injection, schedule: Q01DX001 (ip), vehicle: saline with Tween-80): 107 % of control | T/C (dose: 75.0 mg/kg/injection, schedule: Q01DX001 (ip), vehicle: saline with Tween-80): 95 % of control

CCCCCCCCCCCSSCCCCCCCCCCC
T/C (dose: 100.0 mg/kg/injection, schedule: Q04DX003 (ip), vehicle: other): 96 % of control | T/C (dose: 200.0 mg/kg/injection, schedule: Q04DX003 (ip), vehicle: other): 96 % of control | T/C (dose: 400.0 mg/kg/injection, schedule: Q04DX003 (ip), vehicle: other): 97 % of control

CCOc1ccccc1NC(=O)c1ccc(Cl)cc1Cl
T/C (dose: 50.0 mg/kg/injection, schedule: Q01DX009 (ip), vehicle: Klucel (hydroxypropylcellulose) (HPC)): 92 % of control | T/C [3]: 92 % of control | T/C [4]: 89 % of control | T/C [5]: 86 % of control

CCOC(=O)Cn1c(=O)n(CC(=O)OCC)c2ccccc21
T/C (dose: 100.0 mg/kg/injection, schedule: Q04DX002 (ip), vehicle: Klucel (hydroxypropylcellulose) (HPC)): 104 % of control | T/C (dose: 200.0 mg/kg/injection, schedule: Q04DX002 (ip), vehicle: Klucel (hydroxypropylcellulose) (HPC)): 100 % of control | T/C (dose: 400.0 mg/kg/injection, schedule: Q04DX002 (ip), vehicle: Klucel (hydroxypropylcellulose) (HPC)): 110 % of control

CCOc1ccccc1NC(=S)Nc1ccc([N+](=O)[O-])cc1
T/C (dose: 50.0 mg/kg/injection, schedule: Q01DX009 (ip), vehicle: saline with Tween-80): 92 % of control | T/C (dose: 100.0 mg/kg/injection, schedule: Q01DX009 (ip), vehicle: saline with Tween-80): 92 % of control | T/C (dose: 200.0 mg/kg/injection, schedule: Q01DX009 (ip), vehicle: saline with Tween-80): 95 % of control

CC(=O)OCCCc1ccccc1
T/C [3]: 94 % of control | T/C [4]: 98 % of control | T/C [5]: 95 % of control | T/C (dose: 200.0 mg/kg/injection, schedule: Q04DX003 (ip), vehicle: Klucel (hydroxypropylcellulose) (HPC)): 97 % of control | T/C (dose: 400.0 mg/kg/injection, schedule: Q01DX009 (ip), vehicle: Klucel (hydroxypropylcellulose) (HPC)): 94 % of control | T/C (dose: 400.0 mg/kg/injection, schedule: Q04DX003 (ip), vehicle: Klucel (hydroxypropylcellulose) (HPC)): 94 % of control

CC1(C)CSCC(C)(C)/C(=N/O)C1=O
T/C (dose: 50.0 mg/kg/injection, schedule: Q04DX002 (ip), vehicle: saline with Tween-80): 101 % of control | T/C (dose: 100.0 mg/kg/injection, schedule: Q04DX002 (ip), vehicle: saline with Tween-80): 112 % of control | T/C (dose: 200.0 mg/kg/injection, schedule: Q04DX002 (ip), vehicle: saline with Tween-80): 101 % of control

O=C(COc1ccc(Cl)c(Cl)c1)Nc1ccc[n+](Cc2ccccc2S(=O)(=O)F)c1
T/C [2]: 96 % of control

CC1(C)N=C(N)N=C(N)N1c1ccc(OCCCc2ccccc2)c([N+](=O)[O-])c1
T/C [3]: 103 % of control | T/C [5]: 103 % of control
